# Assay results as given in patent US12685777B2, “Compositions, systems, and methods for modulating a target gene” (The Board of Trustees of the Leland Stanford Junior …, priority 2022, dated 2026).
# “Also recorded” adds a separate entry of the source. Where two headings read alike, the source gives them in different places.
# How the values were obtained:
# CDK9 and BCL6 = target: T1, CDK9 and BCL6 (Homo sapiens, UniProt P41182+P50750); assay: Competition of TCIP-induced cell death with BCL6 inhibitor; type: cell-based; settings: cell death recorded 72 hours after adding
# T1 construct: endogenous in cells
# SUDHL5 = assay: Killing of lymphoma cell lines by CDK9-BCL6 TCIPs, death recorded 72 hours later; type: cell-based, human
# Description: FIG. 15 CDK9-BCL6 TCIPs Effectively Kill Human Lymphomas. The molecules shown in FIG. 14 were used at the indicated concentrations to treat different lymphoma cell lines, such as SUDHL5 shown here. Death was recorded 72 hours later.
# DMS-79 = assay: Dose response on viability of small cell lung cancer line, resazurin assay; type: cell-based; settings: DMS-79, 72 h treatment
# Description: (§1) IC50 of JWZ-7-7, BI-3812, JQ1, and combinations were calculated based on a dose response curve on three small cell lung cancer lines (FIG. 5). The dose response curve on viability was performed in technical replicates and biological triplicate after treating cells for 72 hours across a broad range of concentrations via serial dilutions. Viable cells were measured after treatment via a resazurin assay. The signal for viable assays was normalized to the DMSO treated negative control. A four-parameter non-linear fit was performed to fit a curve to calculate the IC50 for each of the cell lines. The table below describes the calculated IC50 across JWZ-7-7, JQ1, BI-3812 and combination of JQ1 and BI-3812 after 72 h treatment in technical replicates and biological triplicates.
# NCI-H1105 = assay: as above; type: cell-based; settings: NCI-H1105, 72 h treatment
# Description: as §1
# NCI-H2196 = assay: as above; type: cell-based; settings: NCI-H2196, 72 h treatment
# Description: as §1
# DLBCL cell lines = assay: Chemical rescue: competitive titration of JQ1 or Bl3812 against the TCIP; type: cell-based; settings: titrated against constant JWZ-7-7 / TCIP1
# [1] = tested on: MYC, FOXO3, p21, BCL6, BRD4 protein levels in KARPAS422 and SUDHL5; settings: known for BET/BRD4 inhibitors; cited from earlier work
# [2] = tested on: human prostatic cancer cell lines; assay: Viable cell counts of androgen-dependent prostate cancer cell lines after 72 hours; type: cell-based; settings: 72 hours of exposure, read-out: IC50 of killing of prostate cancer cell lines
# Description: The AR-BCL6 TCIPs synthesized in I above were tested for their ability to kill prostate cancer cell lines as an indication of their ability to treat human prostatic cancer. AR-TCIPs rapidly and robustly kill human prostatic cancer cell lines. Four different cell lines were used that are androgen-dependent. The drugs were added at the indicated concentrations and viable cell counts determined after 72 hours of exposure. […] The EC50 is shown in each case.
# AR and BCL6 = target: T2, AR and BCL6 (Homo sapiens, UniProt P10275+P41182); assay: AR-BCL6 nanoBRET assay in HEK293 cells; type: cell-based; settings: labeled AR and BCL6
# T2 construct: HaloTag; NanoLuc; expressed in transfected cells; host or cells: HEK293
# T2 sequence (P10275 whole entry, other chains not shown): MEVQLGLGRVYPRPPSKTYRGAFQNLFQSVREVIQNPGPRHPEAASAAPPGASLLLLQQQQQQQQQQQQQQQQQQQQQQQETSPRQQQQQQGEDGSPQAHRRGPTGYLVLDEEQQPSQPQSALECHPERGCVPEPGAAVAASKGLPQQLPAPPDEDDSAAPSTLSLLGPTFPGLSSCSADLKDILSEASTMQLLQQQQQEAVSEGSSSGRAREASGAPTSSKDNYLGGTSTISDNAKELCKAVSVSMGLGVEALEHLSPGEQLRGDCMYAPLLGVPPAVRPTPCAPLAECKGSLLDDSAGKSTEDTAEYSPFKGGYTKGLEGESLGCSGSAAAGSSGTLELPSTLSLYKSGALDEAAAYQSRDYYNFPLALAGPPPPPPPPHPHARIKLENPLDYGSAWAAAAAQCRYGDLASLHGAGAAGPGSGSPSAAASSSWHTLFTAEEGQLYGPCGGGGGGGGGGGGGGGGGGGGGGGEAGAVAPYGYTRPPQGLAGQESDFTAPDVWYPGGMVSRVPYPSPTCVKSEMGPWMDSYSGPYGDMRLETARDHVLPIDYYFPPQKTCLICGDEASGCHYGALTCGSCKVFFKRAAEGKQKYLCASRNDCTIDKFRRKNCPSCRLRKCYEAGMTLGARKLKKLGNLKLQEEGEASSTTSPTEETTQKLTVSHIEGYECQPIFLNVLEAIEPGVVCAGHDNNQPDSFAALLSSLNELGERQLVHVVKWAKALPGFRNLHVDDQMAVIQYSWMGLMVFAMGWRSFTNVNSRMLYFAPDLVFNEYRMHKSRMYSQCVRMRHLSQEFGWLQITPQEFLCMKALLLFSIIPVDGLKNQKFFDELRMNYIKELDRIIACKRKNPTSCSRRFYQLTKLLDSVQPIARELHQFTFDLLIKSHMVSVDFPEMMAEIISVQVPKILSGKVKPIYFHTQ
# Excerpt: To ascertain activity of TCIP RCS-02-063 as schematically illustrated in FIG. 1, w a BRET assay was developed to detect in vivo target engagement and ternary complex formation. FIG. 25 (Panels A-B) provides an illustration of the assay as wells the results obtained therefrom. […] A BRET signal at 618 nm was then detected after excitation at 460 nm of HEK293 cells infected with the labeled fusion proteins.
smiles,measurement,setting,value
CNC(=O)COc1cc2cc(Nc3nc(N4CCC(C(=O)NCCCCCCC(=O)N5CCC(C(=O)Nc6ncc(SCc7ncc(C(C)(C)C)o7)s6)CC5)CC4)ncc3Cl)cc(OC)c2n(C)c1=O [BAK04-21],"Ternary complex in cells, competition with Bl3812",CDK9 and BCL6,forms a ternary complex in cells that can be competed with the BCL6 inhibitor
CNC(=O)COc1cc2cc(Nc3nc(N4CCC(C(=O)NCCCCCCC(=O)N5CCC(C(=O)Nc6ncc(SCc7ncc(C(C)(C)C)o7)s6)CC5)CC4)ncc3Cl)cc(OC)c2n(C)c1=O [BAK_04_21],Killing of lymphoma cells relative to component and competitor molecules,SUDHL5,more effective at killing lymphoma cells than component molecules and competitor molecules
Cc1sc2c(c1C)C(c1ccc(Cl)cc1)=N[C@@H](CC(=O)OC(C)(C)C)c1nnc(C)n1-2 [JQ1],IC50,DMS-79,10.1 µM
same,IC50,NCI-H1105,Unstable
same,IC50,NCI-H2196,14.4 µM
same,Rescue of TCIP-induced cell death,DLBCL cell lines,rescue cell death; also recorded: prevented death by TCIP1
same,Drug level that reduces expression of MYC,[1],500 nM
CNC(=O)COc1cc2cc(Nc3nc(N4CCC(C(=O)NCCCNC(=O)CO/N=C5\CC[C@H]6[C@@H]7CC[C@H]8CC(=O)CC[C@]8(C)[C@H]7CC[C@]56C)CC4)ncc3Cl)cc(OC)c2n(C)c1=O [RCS-02-063],IC50,[2],~1 µM
same,IC50,"[2]; Homo sapiens, 72 h",~1.5 µM
same,BRET signal (target engagement),AR and BCL6,robust BRET signal
